Laboratory results: patent US7652029B2, “Therapeutic compound and treatments” (priority 2004, dated 2010)

Key:
Format in all cases: cell-based, human
HCT-15 = assay: NCI multiple cell line test (SRB); details: HCT-15 (Colon Cancer), 48 h
ACHN = assay: NCI multiple cell line test (SRB); details: ACHN (Renal Cancer), 48 h
TK-10 = assay: NCI multiple cell line test (SRB); details: TK-10 (Renal Cancer), 48 h
NCI-H460 = assay: NCI multiple cell line test (SRB)
NCI-H522 = assay: NCI multiple cell line test (SRB); details: NCI-H522 (Non-Small Cell Lung Cancer), 48 h
HT29 = assay: NCI multiple cell line test (SRB); details: HT29 (Colon Cancer), 48 h
H226 cells = assay: Growth response, MTT dye conversion assay
HS 578T = assay: NCI multiple cell line test (SRB); details: HS 578T (Breast Cancer), 48 h
OVCAR-8 = assay: NCI multiple cell line test (SRB); details: OVCAR-8 (Ovarian Cancer), 48 h
MDA-MB-435 = assay: NCI multiple cell line test (SRB); details: MDA-MB-435 (Breast Cancer), 48 h
MDA-MB-231/ATCC = assay: NCI multiple cell line test (SRB); details: MDA-MB-231/ATCC (Breast Cancer), 48 h
K-562 = assay: NCI multiple cell line test (SRB); details: K-562 (Leukemia), 48 h
SN12C = assay: NCI multiple cell line test (SRB); details: SN12C (Renal Cancer), 48 h
SF-295 = assay: NCI multiple cell line test (SRB); details: SF-295 (CNS Cancer), 48 h
KM12 = assay: NCI multiple cell line test (SRB); details: KM12 (Colon Cancer), 48 h
UACC-62 = assay: NCI multiple cell line test (SRB); details: UACC-62 (Melanoma), 48 h
OVCAR-5 = assay: NCI multiple cell line test (SRB); details: OVCAR-5 (Ovarian Cancer), 48 h
[1] = Homo sapiens, read-out: −log10GI50 (converted)
[2] = NCI-H460 (Non-Small Cell Lung Cancer), 48 h

## COC(=O)C1=C(C(=O)OC)SC2(S1)C(C(=O)OC)=C(C(=O)OC)SC1=C2c2cccc(OC)c2N(C(=O)CN2C(=O)CCC2=O)C1(C)C [MT477]
HCT-15
  −log10LC50: 4.69 molar
  −log10TGI: 5.27 molar
HCT-15; [1]
  IC50: 1480 nM
ACHN
  −log10LC50: 5.5 molar
  −log10TGI: 5.77 molar
ACHN; [1]
  IC50: 891 nM
TK-10; [1]
  IC50: 1580 nM
TK-10
  −log10LC50: 4.75 molar
  −log10TGI: 5.34 molar
NCI-H460; Homo sapiens, NCI-H460 (Non-Small Cell Lung Cancer), 48 h, read-out: −log10GI50 (converted)
  IC50: 1740 nM
NCI-H460; Homo sapiens, NCI-H460, MT477 ACTUAL
  GI50: 1740 nM
NCI-H460; MT477 ACTUAL
  Activity against lung cancer NCI-H460: Yes
NCI-H460; [2]
  −log10LC50: * (effect not reached at maximum dose of 0.05 millimolar)
  −log10TGI: * (effect not reached at maximum dose of 0.05 millimolar)
NCI-H522; [1]
  IC50: 9.33 µM
NCI-H522
  −log10LC50: * (effect not reached at maximum dose of 0.05 millimolar)
  −log10TGI: 4.31 molar
HT29
  −log10LC50: * (effect not reached at maximum dose of 0.05 millimolar)
  −log10TGI: 4.65 molar
HT29; Homo sapiens, HT-29, read-out: −log10GI50 (converted)
  IC50: 1700 nM
H226 cells; FIG. 5, 48 hours, compared with cisplatin
  growth response: more effective than cisplatin
H226 cells; H226 cells, low doses (FIG. 11 as printed)
  growth response at low concentrations: effective even at very low doses, including micromolar dosages
HS 578T
  −log10LC50: * (effect not reached at maximum dose of 0.05 millimolar)
  −log10TGI: 4.68 molar
HS 578T; [1]
  IC50: 6.61 µM
OVCAR-8; [1]
  IC50: 6.92 µM
OVCAR-8
  −log10LC50: 4.37 molar
  −log10TGI: 4.77 molar
MDA-MB-435; [1]
  IC50: 1700 nM
MDA-MB-435
  −log10LC50: 4.58 molar
  −log10TGI: 5.27 molar
MDA-MB-231/ATCC; [1]
  IC50: 851 nM
MDA-MB-231/ATCC
  −log10LC50: 5.46 molar
  −log10TGI: 5.76 molar
K-562; Homo sapiens, K562, read-out: −log10GI50 (converted)
  IC50: 1620 nM
K-562
  −log10LC50: * (effect not reached at maximum dose of 0.05 millimolar)
  −log10TGI: 4.99 molar
SN12C; [1]
  IC50: 5.89 µM
SN12C
  −log10LC50: 4.6 molar
  −log10TGI: 4.91 molar
SF-295; [1]
  IC50: 9.55 µM
SF-295
  −log10LC50: * (effect not reached at maximum dose of 0.05 millimolar)
  −log10TGI: 4.56 molar
KM12; [1]
  IC50: 2290 nM
KM12
  −log10LC50: * (effect not reached at maximum dose of 0.05 millimolar)
  −log10TGI: * (effect not reached at maximum dose of 0.05 millimolar)
UACC-62; [1]
  IC50: 1170 nM
UACC-62
  −log10LC50: 5.03 molar
  −log10TGI: 5.55 molar
OVCAR-5; [1]
  IC50: 8.91 µM
OVCAR-5
  −log10LC50: 4.53 molar
  −log10TGI: 4.79 molar
